The nature of data set [1]: Bidirectional transport in MOCK LLC-PK1 cells. Particulars: pig. On the procedure:
(§1) MDR1 expressing LLC-PK1 cells or MOCK LLC-PK1 cells were utilized to identify whether P-gp is involved in the efflux transport across the membrane barrier. Cells were cultured as described above. Cells were seeded at a density of 2 × 10^4 in Millicell® 24-well cell culture plates with a 6.5 mm insert (0.4 µm polycarbonate membrane) from Corning (Kennebunk, ME, USA) 7 days before the experiments. On the day of the experiment, transepithelial electrical resistance (TEER) was measured to assess monolayer integrity. After washing the cells twice with HBSS, transport experiments in either the apical-to-basolateral direction (A-B) or the basolateral-to-apical direction (B-A) were conducted. […] After incubating the plates at 37 °C for 2 h, samples from the receiving and donor wells (50 μL) were taken simultaneously. All the samples were stored at −40 °C for LC-MS/MS analysis.
(§2) In the bidirectional transport study in LLC-PK1 cells, the following equations were used to calculate Papp values and the MDR1 efflux ratio.

Another data set deals with MDR1 (Homo sapiens, UniProt P08183). Kind of data set: Bidirectional transport in MDR1-transfected LLC-PK1 cells. The settings on record: MDR1-transfected; 2 μM TET, 10 μM metoprolol, 10 μM atenolol, 2 μM digoxin; TAR 5 μM where stated; 2 h, 37 °C. On the procedure:
as §1, §2

A further data set concerns the target MDR1 (P-gp) (Homo sapiens, UniProt P08183). Described as above. As for the experimental part: as §1, §2
Another data set relates to CYP3a. Put plainly: CYP3a probe substrate turnover in microsomes from normal and LPS-treated mice. Particulars: microsomes of LPS-treated vs normal mice, Figure 4A. It counts as in vitro ADME, mouse.
For another data set, the target named is T1, OATP1B3 (Homo sapiens, UniProt Q9NPD5).
T1 sequence (Q9NPD5 1-702): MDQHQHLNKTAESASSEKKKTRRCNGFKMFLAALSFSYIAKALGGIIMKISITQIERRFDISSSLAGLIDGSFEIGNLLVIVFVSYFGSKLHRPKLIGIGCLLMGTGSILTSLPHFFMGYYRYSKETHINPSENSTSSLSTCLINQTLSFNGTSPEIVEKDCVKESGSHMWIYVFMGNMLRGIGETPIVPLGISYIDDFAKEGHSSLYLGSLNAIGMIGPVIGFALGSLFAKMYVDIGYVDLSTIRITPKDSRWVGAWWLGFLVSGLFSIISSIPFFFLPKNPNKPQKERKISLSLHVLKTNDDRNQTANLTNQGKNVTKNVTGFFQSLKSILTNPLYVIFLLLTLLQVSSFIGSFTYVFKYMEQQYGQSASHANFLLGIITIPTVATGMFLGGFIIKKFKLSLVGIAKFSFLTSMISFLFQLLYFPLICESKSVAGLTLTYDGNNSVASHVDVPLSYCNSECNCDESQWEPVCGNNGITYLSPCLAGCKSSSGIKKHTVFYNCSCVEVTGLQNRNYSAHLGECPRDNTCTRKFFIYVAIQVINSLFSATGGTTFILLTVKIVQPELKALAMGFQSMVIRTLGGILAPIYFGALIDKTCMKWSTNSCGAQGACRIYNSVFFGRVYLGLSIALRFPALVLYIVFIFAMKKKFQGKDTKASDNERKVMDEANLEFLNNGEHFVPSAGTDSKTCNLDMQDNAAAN
Put plainly: Uptake by OATP1B3-expressing HEK293 cells. The settings on record: positive control 20 μM, 10 min. As for the experimental part: (§3) Expressing OATP1B1/OATP1B3 or MOCK HEK293 cells were utilized to evaluate whether TET is a substrate of these two SLC transporters. Cell culture was performed as mentioned above. Cells were seeded on 96-well plates at the density of 0.8 × 10^5 cells/well. The culture medium was replaced with a medium containing 5 mM sodium butyrate for 24 h before the transport study to enhance the expression of transporters. For the transport assay, the DMEM media were removed and the cells were washed with pre-warmed Krebs–Henseleit buffer twice (0.1 mL/well). The second washing buffer was kept in the wells and the plate was incubated at 37 °C for 5 min before the uptake assay was initiated. […] The incubation solution was removed and the cells were washed with ice-cold transportation buffer three times (0.1 mL/well). A total of 0.1 mL pure water was added to each well to lyse the cells by repeated freezing and thawing (−196 °C–37 °C, three times). The cell lysate was collected and stored at −40 °C for LC-MS/MS analysis and protein measurement.
(§4) In the uptake study of TET by OATP1B1 and OATP1B3 expressing the HEK293 cell line, the uptake clearance (U) of the substrate was calculated according to Equation (5), the transporter-mediated uptake ratio (UR) was calculated by dividing the uptake clearance from transporter-expressing cells to that from the mock cells according to Equation (6), and the inhibition ratio (IR) was calculated according to Equation (7), where p represents the protein content and T is the duration of the incubation time. (5) U=Clysate/p×T (6) UR=U/UMOCK (7) IR=(1−Uwith inhibitor−Umock with inhibitor/Uwithout inhibitor−Umock without inhibitor)×100

Another data set relates to HEK293-MOCK cells. Put plainly: Uptake by MOCK (empty vector) HEK293 cells. The settings on record: positive control 20 μM, 10 min. As for the experimental part:
as §3, §4

From PMC9655037, “Alternation of Organ-Specific Exposure in LPS-Induced Pneumonia Mice after the Inhalation of Tetrandrine Is Governed by Metabolizing Enzyme Suppression and Lysosomal Trapping” (International Journal of Molecular Sciences, 2022) come the findings set out here.

Sequence of MDR1 (P-gp) (P08183 whole entry): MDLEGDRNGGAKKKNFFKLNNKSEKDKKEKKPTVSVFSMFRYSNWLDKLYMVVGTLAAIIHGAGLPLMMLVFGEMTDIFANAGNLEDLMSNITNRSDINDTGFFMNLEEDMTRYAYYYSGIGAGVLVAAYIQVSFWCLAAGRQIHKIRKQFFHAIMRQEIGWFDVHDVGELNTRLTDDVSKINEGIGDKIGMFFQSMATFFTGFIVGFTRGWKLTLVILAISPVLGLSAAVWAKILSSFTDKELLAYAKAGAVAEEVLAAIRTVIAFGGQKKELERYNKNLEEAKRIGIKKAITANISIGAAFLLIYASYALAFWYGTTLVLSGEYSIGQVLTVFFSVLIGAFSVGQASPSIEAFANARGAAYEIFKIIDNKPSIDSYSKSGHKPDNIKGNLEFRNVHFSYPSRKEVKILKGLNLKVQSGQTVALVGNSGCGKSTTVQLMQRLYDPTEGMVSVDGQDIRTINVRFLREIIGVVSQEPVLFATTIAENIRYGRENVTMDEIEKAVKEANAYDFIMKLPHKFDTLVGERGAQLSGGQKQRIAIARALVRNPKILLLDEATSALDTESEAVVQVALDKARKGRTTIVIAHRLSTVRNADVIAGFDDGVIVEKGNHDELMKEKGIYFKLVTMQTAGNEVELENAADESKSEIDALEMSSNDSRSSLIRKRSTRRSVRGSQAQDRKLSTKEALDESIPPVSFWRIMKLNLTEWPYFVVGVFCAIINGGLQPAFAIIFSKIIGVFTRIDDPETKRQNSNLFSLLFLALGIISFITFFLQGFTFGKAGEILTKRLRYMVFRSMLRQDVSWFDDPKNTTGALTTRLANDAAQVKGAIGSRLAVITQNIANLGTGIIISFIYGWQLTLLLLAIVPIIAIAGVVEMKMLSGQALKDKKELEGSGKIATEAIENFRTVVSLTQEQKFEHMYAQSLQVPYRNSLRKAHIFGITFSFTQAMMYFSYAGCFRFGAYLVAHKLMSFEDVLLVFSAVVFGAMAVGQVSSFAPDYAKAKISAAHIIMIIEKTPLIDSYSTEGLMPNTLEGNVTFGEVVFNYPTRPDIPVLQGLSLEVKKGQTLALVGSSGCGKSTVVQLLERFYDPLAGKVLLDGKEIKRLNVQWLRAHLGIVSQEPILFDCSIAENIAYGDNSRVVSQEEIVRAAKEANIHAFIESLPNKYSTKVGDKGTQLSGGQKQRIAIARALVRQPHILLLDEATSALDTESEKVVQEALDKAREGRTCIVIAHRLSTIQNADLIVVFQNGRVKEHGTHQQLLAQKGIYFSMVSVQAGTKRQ
Sequence of MDR1 (P08183 whole entry): as above

The Papp A→B is how fast a substance crosses the layer from the apical side. The term Papp B→A denotes the apparent permeability from the basolateral to the apical side of a cell layer. For orientation: efflux ratio means the permeability from basolateral to apical divided by that in the opposite direction, in the common usage. For the compound `C[C@H]1O[C@@H](O[C@H]2[C@@H](O)C[C@H](O[C@H]3[C@@H](O)C[C@H](O[C@H]4CC[C@@]5(C)[C@H](CC[C@@H]6[C@@H]5C[C@@H](O)[C@]5(C)[C@@H](C7=CC(=O)OC7)CC[C@]65O)C4)O[C@@H]3C)O[C@@H]2C)C[C@H](O)[C@@H]1O` [Digoxin, digoxin], in data set [1], the Papp A→B at 2 h was 2.25 ± 0.26 ×10⁻⁶ cm/s, the apparent permeability from basolateral to apical (Papp B→A) at 2 h turned out to be 1.74 ± 0.2 ×10⁻⁶ cm/s and the efflux ratio at 2 h came out at 0.77. For the same compound, on MDR1, the “Papp A-B” value is 0.98 ± 0.11 **^,## and the “Papp B-A” value is listed as 11.27 ± 0.77 **^,##. The efflux ratio at 2 h on MDR1 (P-gp) (human, LLC-PK1) came to 11.5.
As for `COCCc1ccc(OCC(O)CNC(C)C)cc1` (centres unmarked) [Metoprolol, metoprolol], in data set [1], the apparent permeability from apical to basolateral (Papp A→B) at 2 h was found to be 32.2 ± 2.8 ×10⁻⁶ cm/s, the Papp B→A at 2 h worked out at 25 ± 0.3 ×10⁻⁶ cm/s and the efflux ratio at 2 h came out at 0.7. At MDR1 (P-gp), this compound showed an apparent permeability from apical to basolateral (Papp A→B) at 2 h of 28.2 ± 0.65 ×10⁻⁶ cm/s. Further, at MDR1 (P-gp) (human, LLC-PK1), the Papp B→A at 2 h is 28.3 ± 2.07 ×10⁻⁶ cm/s and the efflux ratio at 2 h worked out at 1.
`Cc1ncc2n1-c1ccc(Cl)cc1C(c1ccccc1F)=NC2` [midazolam]: the “1′-hydroxylation reaction lowered by LPS-induced pneumonia” value in the data set with CYP3a (at 24 h) was ~ 2.55 fold.
Turning to `C[C@]12CC[C@@H]3c4ccc(O)cc4CC[C@H]3[C@@H]1CC[C@@H]2O[C@@H]1O[C@H](C(=O)O)[C@@H](O)[C@H](O)[C@H]1O` [Positive Control, 17β-estradiol-17β-D-glucuronide], the “Uptake Clearance” value at OATP1B3 (OATP1B3+RIF) is reported as 3.66 ± 0.03 nM/min/mg Protein; on OATP1B3 (OATP1B3 cells), 30.0 ± 1.46 **^, ## nM/min/mg Protein; in the data set with HEK293-MOCK cells (MOCK (OATP1B1 set)) it was 2.4 ± 0.03 nM/min/mg Protein; in the data set on HEK293-MOCK cells (MOCK (OATP1B3 set)), 2.7 ± 0.07 nM/min/mg Protein; in the data set with HEK293-MOCK cells (MOCK+RIF (OATP1B1 set)), 2.63 ± 0.08 nM/min/mg Protein; in the data set on HEK293-MOCK cells (MOCK+RIF (OATP1B3 set)), 2.73 ± 0.08 nM/min/mg Protein.
For the compound `C[C@]12CC[C@H]3[C@@H](CCC4=CC(=O)CC[C@@]43C)[C@@H]1CC[C@@H]2O` [testosterone], in the data set on CYP3a, the “change of 6-β-hydroxylation reaction under inflammation state (no obvious alternation)” value is given as ~ 1.14 fold.
